# Test results: patent US20240228488A1 (TAKEDA PHARMACEUTICAL COMPANY LIMITED, priority 2021, published 2024)
# Legend:
# [1] = target: human activated kallikrein enzyme (Homo sapiens, UniProt P03952); assay: Plasma kallikrein inhibition, fluorogenic PFR-AMC substrate, 500 pM activated kallikrein format; format: biochemical; conditions: 500 pM activated kallikrein, 300 uM PFR-AMC, 30 min preincubation, 10 min reaction; read-out: Primary Dose Response Assay: Average EC50
# Outline: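 Enzyme at 500 pM preincubated 30 min RT with inhibitors in 20 mM Tris pH 7.5, 1 mM EDTA, 150 mM NaCl, 0.1% PEG-400, 0.1% Triton X-100. Reaction started with 300 uM PFR-AMC, run 10 min RT; fluorescence read at 460 nm emission, 380 nm excitation. EC50 reported in ranges.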
# plasma kallikrein = target: T1, plasma kallikrein (Homo sapiens, UniProt P03952); assay: Neat human plasma assay, FXIIa contact pathway-activated, PFR-AMC substrate; format: biochemical; conditions: citrated human plasma 78% final, 10 nM human FXIIa, 100 μM PFR-AMC; read-out: Human Plasma Assay: IC90
# T1 construct: from tissue
# T1 sequence (P03952 391-638 limits assumed): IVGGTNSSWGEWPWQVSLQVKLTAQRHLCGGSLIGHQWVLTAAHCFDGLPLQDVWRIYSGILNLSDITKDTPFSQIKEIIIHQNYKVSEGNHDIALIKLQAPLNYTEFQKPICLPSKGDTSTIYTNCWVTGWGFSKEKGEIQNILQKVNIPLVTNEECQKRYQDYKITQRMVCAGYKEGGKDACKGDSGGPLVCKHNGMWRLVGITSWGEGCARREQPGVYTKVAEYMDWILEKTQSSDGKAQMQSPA
# T1 sequence (P03952 20-390 partner limits assumed): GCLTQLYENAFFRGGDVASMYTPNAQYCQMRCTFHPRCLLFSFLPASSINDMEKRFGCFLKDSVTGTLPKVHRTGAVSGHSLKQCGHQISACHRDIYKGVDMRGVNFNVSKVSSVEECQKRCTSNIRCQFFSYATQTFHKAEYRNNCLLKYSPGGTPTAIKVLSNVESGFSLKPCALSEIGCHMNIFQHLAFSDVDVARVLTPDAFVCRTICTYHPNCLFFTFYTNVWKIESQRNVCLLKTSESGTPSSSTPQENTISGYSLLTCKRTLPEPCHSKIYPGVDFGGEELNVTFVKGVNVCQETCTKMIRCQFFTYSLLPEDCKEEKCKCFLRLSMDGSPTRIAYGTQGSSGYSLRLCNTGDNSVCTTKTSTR
# Outline: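 Citrated human plasma (78% final) with compound, contact-activated by 10 nM human FXIIa in pKal buffer pH 7.5, with 100 μM PFR-AMC. Fluorescence (360/480 nm) followed 5 min at room temperature; rates versus concentration fitted by 4-parameter equation for IC50/IC90.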
# Chain of human activated kallikrein enzyme (P03952 391-638 limits assumed): as the sequence (P03952 391-638 limits assumed) above
# Chain of human activated kallikrein enzyme (P03952 20-390 partner limits assumed): as the sequence (P03952 20-390 partner limits assumed) above
SMILES,EC50 [1],IC90 (plasma kallikrein)
"Cc1ccnc([C@H]2C[C@@H]2C(=O)Nc2cc(N3C[C@@H](O)C[C@@H]3c3cn4cc(C5CC5)cc(N5CC(=O)NC5=O)c4n3)ncn2)n1 (relative stereo) [Example 474, rac-(1S*,2S*)-N-(6-((2R,4S)-2-(6-cyclopropyl-8-(2,4-dioxoimidazolidin-1-yl)imidazo[1,2-a]pyridin-2-yl)-4-hydroxypyrrolidin-1-yl)pyrimidin-4-yl)-2-(4-methylpyrimidin-2-yl)cyclopropane-1-carboxamide]",< 1 nM,400 to 1500 nM
"Cc1ccnc([C@H]2C[C@@H]2C(=O)Nc2cc(NCc3cn4cc(C5CC5)cc(N5CC(=O)N(C)C5=O)c4n3)nc(C3(F)COC3)n2)n1 (racemic) [Example 114, rac-(1S*,2S*)—N-(6-(((6-cyclopropyl-8-(3-methyl-2,4-dioxoimidazolidin-1-yl)imidazo[1,2-a]pyridin-2-yl)methyl)amino)-2-(3-fluorooxetan-3-yl)pyrimidin-4-yl)-2-(4-methylpyrimidin-2-yl)cyclopropane-1-carboxamide]",1 to 10 nM,400 to 1500 nM
"O=C(Nc1cc(NCc2cn3cc(C4CC4)cc(C4(O)COC4)c3n2)ncn1)[C@H]1C[C@@H]1c1cccc(Cl)c1 (racemic) [Example 63, rac-(1S*,2S*)-2-(3-chlorophenyl)-N-(6-(((6-cyclopropyl-8-(3-hydroxyoxetan-3-yl)imidazo[1,2-α]pyridin-2-yl)methyl)amino)pyrimidin-4-yl)cyclopropane-1-carboxamide]",1 to 10 nM,1500 to 10000 nM
